# From patent US8883798B2, “Pyrimidine compounds inhibiting the formation of nitric oxide and prostaglandin E2, method of production thereof and use thereof” (Ustav Organicke Chemie a Biochemie Akademie Ved CR, V.V.I., priority 2011, dated 2014)
# Experiments:
# [1] = tested on: production of nitric oxide (NO); experiment: Production of nitric oxide (NO) in cultures of mouse peritoneal cells stimulated with IFN-γ plus LPS (Griess reagent); assay type: cell-based, mice; conditions: substance 50 μmol·l^−1, IFN-g plus LPS, 24 h
# Procedure: (§1) Under in vitro conditions, the effect of the pyrimidine compounds according to this invention was tested in terms of the production of nitric oxide (NO) and in terms of the production of prostaglandin E2 (PGE2) in cultures of the peritoneal cells of mice.
# NO is a product of the metabolism of L-arginine, quickly changes to […], which are then measured using the Griess reagent system. Under normal conditions, the production of NO is practically zero. It only occurs after some stimulation. In these experiments, interferon-gamma (IFN-γ) and bacterial lipopolysacharide (LPS) were used as stimulators. The values of NO induced in this way fluctuated in the individual experiments in a range from 52 to 89 μmol·l^−1; for the purposes of comparison between the experiments they were considered as 100%. The production of NO after the application of the substances was expressed in percentage with respect to the control values. (The lower the value, the higher the inhibition effect of the substances on NO production.) IC50 are the concentrations of the substances reducing the production of NO by 50% with respect to the controls.
# (§2) Experiments were performed on mice peritoneal cells C57BL/6 (Charles River, Germany—AnLabu).
# (§3) NO production was induced using IFN-g (5000 pg/mL) plus LPS (100 pg/mL); evaluated (Griess reagent) after 24 h of the cell cultivation (2×10^6/mL). PGE2 was induced using LPS (10 ng/mL); evaluated (ELISA) following 6 h cultivation of cells (3×10^6/mL). Cell longevity was evaluated using WST-1 (tetrazolium salt), following 24 h cultivation of cells (1×10^6/mL). The values mentioned in the table represent the effects of the substances tested in a concentration of 50 μmol·l^−1.
# [2] = tested on: production of prostaglandin E2 (PGE2); experiment: Production of prostaglandin E2 (PGE2) in cultures of mouse peritoneal cells stimulated with LPS (ELISA kit); assay type: cell-based, mice; conditions: for Production of prostaglandins in % of the controls: Table 3A, substance 50 μmol·l^−1, 6 h; for Production of prostaglandins IC50 (μmol · 1^−1) average value and range of values: Table 3B, 6 h
# Procedure: as §1
# The influence on the production of prostaglandin E2 (PGE2) in vitro caused by the activity of the pyrimidine compounds according to the submitted invention was determined in cultures of the peritoneal cells of mice using a commercial kit (R&DSystems). The concentrations of PGE2 after lipopolysacharide (LPS) stimulation reached in the individual experiments values in a range of 22 to 91 ng·ml^−1 and for the purposes of comparison between the experiments were considered as 100%. The influence of the substances on the production of PGE2 was evaluated in percentage with respect to the control values.
# as §2, §3
# peritoneal cells of mice = experiment: Cell viability of mouse peritoneal cells (WST-1 kit); assay type: cell-based; conditions: substance 50 μmol·l^−1, 24 h; for Cell viability in % of the controls: Table 3A; for Cell viabilities in % of the controls: Table 3B
# Procedure: Cell viability was determined in the standard way using a WST-1 kit (Roche). The values of the viability of the control cells were for the purposes of comparison between experiments considered as 100%. The influence of the substances on the longevity of the cells was evaluated in percentage with respect to the control values.
# as §2, §3
Compound,Production of prostaglandins IC50 (μmol · 1^−1) average value and range of values [2],Production of nitric oxide in % of the controls ([1]; Table 3A),Production of prostaglandins in % of the controls [2],Cell viability in % of the controls (peritoneal cells of mice),Production of nitric oxide in % of the controls ([1]; Table 3B),Cell viabilities in % of the controls (peritoneal cells of mice)
C=CCc1c(Cl)nc(N)nc1Cl [Substance 32],,41.72 ± 9.27 % of the controls,90.81 ± 5.95 % of the controls,93.55 ± 19.55 % of the controls,,
Cc1c(Cl)nc(NC=O)nc1Cl [Substance 48],,1.35 ± 0.01 % of the controls,36.31 ± 1.99 % of the controls,66.37 ± 8.13 % of the controls,,
CCc1c(Cl)nc(NC=O)nc1Cl [Substance 49],,5.76 ± 2.48 % of the controls,20.58 ± 2.13 % of the controls,111.37 ± 10.44 % of the controls,,
CCCc1c(Cl)nc(NC=O)nc1Cl [Substance 50],,3.95 ± 2.27 % of the controls,14.20 ± 7.00 % of the controls,98.59 ± 6.59 % of the controls,,
CCC(C)c1c(Cl)nc(NC=O)nc1Cl (stereo not drawn) [Substance 54],,0.17 ± 0.17 % of the controls,30.48 ± 1.79 % of the controls,77.51 ± 14.73 % of the controls,,
O=CNc1nc(Cl)c(-c2ccccc2)c(Cl)n1 [Substance 56],,0.80 ± 0.37 % of the controls,46.40 ± 0.28 % of the controls,48.49 ± 4.44 % of the controls,,
C=CCc1c(Cl)nc(NC=O)nc1Cl [Substance 57],,1.21 ± 0.28 % of the controls,16.42 ± 0.64 % of the controls,95.37 ± 15.40 % of the controls,,
O=CNc1nc(Cl)c(Cc2ccccc2)c(Cl)n1 [Substance 59],,0.15 ± 0.01 % of the controls,3.84 ± 0.11 % of the controls,58.75 ± 5.34 % of the controls,,
CCCCc1c(-c2ccccc2)nc(N)nc1-c1ccccc1 [Substance 67],76.75 ± 10.63; n = 4 μmol · 1^−1,,,,80.37 ± 1.36; n = 4 % of the controls,93.60 ± 2.81; n = 4 % of the controls
CCCCc1c(Cl)nc(N)nc1-c1ccccc1 [Substance 68],18.12 ± 0.99; n = 6 μmol · 1^−1,,,,27.78 ± 2.11; n = 4 % of the controls,94.17 ± 8.43; n = 8 % of the controls
CCCCc1c(Cl)nc(N)nc1-c1ccc(F)cc1 [Substance 71],26.66 ± 11.71; n = 4 μmol · 1^−1,,,,37.07 ± 6.31; n = 4 % of the controls,94.59 ± 7.75; n = 4 % of the controls
CCCCc1c(Cl)nc(N)nc1-c1ccc(OC)cc1 [Substance 75],4.7 ± 1.17; n = 4 μmol · 1^−1,,,,15.96 ± 4.83; n = 4 % of the controls,86.35 ± 9.29; n = 8 % of the controls
CCCCc1c(-c2ccccc2)nc(N)nc1-c1ccccn1 [Substance 76],42.94 ± 11.04; n = 6 μmol · 1^−1,,,,45.05 ± 3.55; n = 4 % of the controls,97.97 ± 5.33; n = 8 % of the controls
CCCCc1c(-c2ccccc2)nc(N)nc1-c1cccnc1 [Substance 78],59.49 ± 9.09; n = 2 μmol · 1^−1,,,,52.81 ± 2.91; n = 4 % of the controls,78.08 ± 5.20; n = 4 % of the controls
CCCCc1c(Cl)nc(N)nc1-c1cccnc1 [Substance 82],92.02 ± 8.95; n = 4 μmol · 1^−1,,,,12.07 ± 2.39; n = 8 % of the controls,45.38 ± 2.92; n = 12 % of the controls
CCCCc1c(-c2ccccc2)nc(N)nc1-c1cccs1 [Substance 86],27.57 ± 8.77; n = 4 μmol · 1^−1,,,,47.57 ± 8.58; n = 6 % of the controls,101.59 ± 9.19; n = 8 % of the controls
CCCCc1c(-c2ccccn2)nc(N)nc1-c1cccs1 [Substance 89],92.30 ± 9.20; n = 4 μmol · 1^−1,,,,19.62 ± 4.08; n = 6 % of the controls,104.15 ± 10.36; n = 8 % of the controls
CCCCc1c(-c2cccnc2)nc(N)nc1-c1cccs1 [Substance 90],31.93 ± 15.87; n = 4 μmol · 1^−1,,,,50.11 ± 3.95; n = 4 % of the controls,69.80 ± 6.79; n = 4 % of the controls

# Continued, in another order:
Production of prostaglandins IC50 (μmol · 1^−1) average value and range of values [2],Compound,Production of nitric oxide in % of the controls ([1]; Table 3A),Production of prostaglandins in % of the controls [2],Cell viability in % of the controls (peritoneal cells of mice),Production of nitric oxide in % of the controls ([1]; Table 3B),Cell viabilities in % of the controls (peritoneal cells of mice)
75.40 ± 21.62; n = 4 μmol · 1^−1,CCCCc1c(-c2ccccc2)nc(N)nc1-c1ccc(F)cc1 [Substance 69],,,,71.24 ± 4.28; n = 4 % of the controls,121.04 ± 9.53; n = 4 % of the controls
51.70 ± 13.80; n = 2 μmol · 1^−1,CCCCc1c(-c2ccc(F)cc2)nc(N)nc1-c1ccc(F)cc1 [Substance 70],,,,87.03 ± 3.75; n = 4 % of the controls,108.03 ± 9.80; n = 4 % of the controls
3.61 ± 0.22; n = 4 μmol · 1^−1,CCCCc1c(-c2ccccc2)nc(N)nc1-c1ccc(OC)cc1 [Substance 72],,,,55.45 ± 12.92; n = 6 % of the controls,108.35 ± 5.66; n = 8 % of the controls
3.92 ± 1.85; n = 4 μmol · 1^−1,CCCCc1c(-c2ccc(F)cc2)nc(N)nc1-c1ccc(OC)cc1 [Substance 73],,,,65.09 ± 4.11; n = 6 % of the controls,130.12 ± 10.97; n = 12 % of the controls
38.22 ± 5.59; n = 2 μmol · 1^−1,CCCCc1c(-c2ccc(OC)cc2)nc(N)nc1-c1ccc(OC)cc1 [Substance 74],,,,86.27 ± 4.16; n = 4 % of the controls,98.75 ± 5.63; n = 12 % of the controls
13.48 ± 1.94; n = 4 μmol · 1^−1,CCCCc1c(-c2ccc(OC)cc2)nc(N)nc1-c1ccccn1 [Substance 77],,,,58.20 ± 5.42; n = 6 % of the controls,100.86 ± 11.78; n = 4 % of the controls
47.26 ± 5.67; n = 2 μmol · 1^−1,CCCCc1c(-c2ccc(F)cc2)nc(N)nc1-c1cccnc1 [Substance 79],,,,62.58 ± 2.32; n = 6 % of the controls,104.50 ± 6.37; n = 8 % of the controls
41.84 ± 7.54; n = 2 μmol · 1^−1,CCCCc1c(-c2ccc(OC)cc2)nc(N)nc1-c1cccnc1 [Substance 80],,,,35.18 ± 4.39; n = 4 % of the controls,103.13 ± 4.24; n = 8 % of the controls
23.05 ± 11.33; n = 4 μmol · 1^−1,CCCCc1c(-c2ccc(F)cc2)nc(N)nc1-c1cccs1 [Substance 87],,,,48.59 ± 10.92; n = 3 % of the controls,125.94 ± 4.49; n = 8 % of the controls
14.19 ± 4.00; n = 6 μmol · 1^−1,CCCCc1c(-c2ccc(OC)cc2)nc(N)nc1-c1cccs1 [Substance 88],,,,69.14 ± 9.10; n = 2 % of the controls,125.52 ± 5.28; n = 8 % of the controls
